Laboratory results taken from US12366579B2, “Sulfur-heterocycle exchange chemistry and uses thereof” (University of Virginia Patent Foundation, priority 2019, dated 2025).

Tests used:
[1] = HPLC assay, p-cresol reactivity against a sulfonyl probe mixture; type: physicochemical; settings: TMG 1.1 equivalents, 0° C.
Description: The following reagents were prepared and kept at 0° C. prior to use: 0.1 M solution of caffeine in acetonitrile (ACN), 1.0 M solution of n-butylamine, p-cresol, tetramethylguanidine (TMG), acetic acid in ACN, and 10 mM solution of the probes in a mixture of DMF-ACN (v/v=10:90) are made.
(i) p-Cresol reactivity against a probe mixture: A solution of p-cresol (16.5 μmol, 3.3 eq) was premixed with 1.1, 2.2, or 3.3 eq of TMG. To initiate the reaction, the p-cresol/TMG solution was added to a sulfonyl probe mixture of HHS-475/HHS-482/HHS-SF-1 (500 μL, 5 μmol, 1.0 eq each) and the reaction was kept at 0° C. The reaction progress was monitored by taking out a 50.0 μL aliquot of the reaction mixture at various time points followed by addition of a 10 μL quenching solution of acetic acid (0.5 M final, 5.0 μmol) and the internal caffeine standard (0.05 M final, 0.5 μmol). Sample (1.0 μL) was injected and analyzed by reverse-phase HPLC on a Shimadzu 1100 Series spectrometer (Shimadzu, Kyoto, Japan) with UV detection at 254 nm. Reaction progress was evaluated by monitoring consumption of sulfonyl probes because all probes generate a shared p-cresol and n-butylamine product. Chromatographic separation was performed using a Phenomenex Kinetex C18 column (2.6 μm, 50 mm×4.6 mm, Phemonenex, Torrance, California, United States of America). […]

[2] = system: HEK293T soluble proteomes; test: LC-MS chemical proteomics of probe-modified sites in cell proteomes; type: binding, human
Description: Proteomes were diluted to 2.3 mg/mL in PBS and sample aliquots (432 μL) were treated with sulfonyl-triazole or -fluoride probes at the indicated concentrations (5 μL, 100× stock in DMSO), mixed gently and incubated for 1 h at room temperature. Probe-modified proteomes were subjected to CuAAC conjugation to desthiobiotin-PEG3-azide (10 μL of 10 mM stock in DMSO; final concentration of 200 μM) using TCEP (10 μL of fresh 50 mM stock in water; 1 mM final concentration), TBTA ligand (33 μL of a 1.7 mM 4:1 t-butanol/DMSO stock, 100 μM final concentration), and CuSO4 (10 μL of 50 mM stock, 1 mM final concentration). Samples were mixed by vortexing and then incubated for 1 h at room temperature. Excess reagents were removed by chloroform-methanol extraction as previously described^51. Protein pellets were re-suspended in 500 μL of 6M urea/25 mM ammonium bicarbonate followed by DTT reduction and IAA alkylation as previously described^5. Excess reagents were removed by chloroform/methanol extraction as described above, and the protein pellet was re-suspended in 500 μL of 25 mM ammonium bicarbonate and then digested to peptides using trypsin/Lys-C (7.5 μg in 15 μL of ammonium bicarbonate, sequencing grade from Promega, Madison, Wisconsin, United States of America) was added to the mixture and incubated for 3 hrs at 37° C. Probe-modified peptides were enriched by avidin affinity chromatography, eluted, and prepared for LC-MS analysis as previously described^51.
A top 10 data-dependent acquisition MS method was used.
Sulfonyl-probe modifications of tyrosine, lysine, and other amino acids were included as a variable (common) modification of +635.27374 Da. […] A Byonic score of 300 was applied for a more inclusive initial evaluation of the search results and thereby consider more possible probe-modified sites. MS1 and MS2 spectra corresponding to the highest-scoring tyrosine- and lysine (internal or non-C terminal)-modified sequences (˜50-100 peptides) were manually verified. […] Distinct peptides containing probe-modified amino acid residues (termed sites) were determined by identifying all unique razor protein and site combinations across all of the proteomes tested.
To compare amino acid residues modified by sulfonyl probes, protein and peptide identifications were accomplished as described above with variable (common) modification of +635.27374 Da on the following amino acid residues: cysteine, aspartic acid, glutamic acid, histidine, lysine, methionine, asparagine, glutamine, arginine, serine, threonine, tryptophan, and tyrosine. For these amino acid comparisons, carbamidomethylation (+57.021464 Da) of cysteines was searched as a variable/common modification to allow for the potential of probe modification on cysteines. Comparisons of probe-modified sites across all probes and cell lines tested were performed using the R package ggplot2 (online at tidyverse.org). Venn diagrams for comparisons were generated using the VennDiagram R package^52.
Proteomes were digested with trypsin protease and desthiobiotin-modified peptides enriched by avidin affinity chromatography, released, and analyzed by high-resolution liquid chromatography-mass spectrometry (LC-MS). Probe-modified peptide-spectrum matches (PSMs) that met a quality control confidence criteria of ≥300 Byonic score^31 and ≤5 ppm mass accuracy were selected for further manual evaluation.

Structure (SMILES): C#CCNC(=O)c1ccc(S(=O)(=O)n2cncn2)cc1 [HHS-475, 4-((1H-1,2,4-Triazol-1-yl)sulfonyl)-N-(prop-2-yn-1-yl)benzamide]
- time to consumption of probe by p-cresol [1]: ≤ 30 min
- unique-modified tyrosine sites among 1,2,4-SuTEx probes ([2]; FIG. 4D): 391 sites
- tyrosine specificity, Y/K ratio of modified sites ([2]; LC-MS chemical proteomics, FIG. 4A): 2.8
